pIC50: −log10 of the molar value.
Key:
[1] = Whole blood stability, mouse; format: in vitro ADME
From the text: (§1) The results of the assay on stability in blood and IC50 values for pancreatic cancer cell line KP4 are given below in Table 24.

KP4 = assay: Cell viability assay (CellTiter Glo), pancreatic ductal adenocarcinoma KP4; format: cell-based, human; settings: Homo sapiens, KP-4, 96 h, pancreatic cancer cell line KP4, 96 hours, CellTiter Glo; read-out: IC50 μM KP4
In short: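 KP4 cells seeded at 1,000–10,000 per well, treated 96 h with 9-point 3-fold dilutions from 30 μM top (4.6 nM–30 μM, duplicates; ≤0.25% DMSO). Viability by CellTiter Glo luminescence; % inhibition relative to DMSO-only wells, giving IC50, relative IC50 or % top inhibition.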

[2] = Whole blood stability, human; format: in vitro ADME
From the text: as §1

A673 = assay: Cell proliferation assay, A673 (Table 25); format: cell-based; settings: Homo sapiens, A673, Cell Line A673
Method: (§2) Cell viability assay was performed to assess the potency of the compounds in human cancer cell lines 786-O (renal cell carcinoma) and SJSA-1 (osteosarcoma). Additional cell lines, such as those described above in Example 4 as well as various others, e.g., pancreatic cancer cell lines (Panc 02.13, BxPC-3, Panc 12, Panc 02.03, Panc 6.03, PSN-1, HPAC, and Capan-1) and prostate cancer cell lines (PC-3, DU145, 22Rv1, NCI-H660, BPH1, LNCaP, BM-1604, and MDA PCa 2b), were tested for select compounds as shown in Table 25.
(§3) The cell proliferation assays for the compounds shown Table 25 was performed according to the protocols described herein, including Examples 4 and 6.

MDA PCa 2b = assay: Cell proliferation assay, prostate cancer cell line MDA PCa 2b; format: cell-based
Method: as §2, §3

A549 = assay: Cell viability assay, A549 cells; format: cell-based; settings: Homo sapiens, A549, Cell Line A549; read-out: IC50
In short: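 Growth of A549 cells was assessed with a cell viability assay. Cells were plated at 1,000-10,000 cells/well in 96-well plates and incubated overnight at 37° C. Nine-point 3-fold DMSO dilutions, starting from 30 μM and run in duplicate, were diluted into media (final DMSO 0.25% or less). After 96 hours, CellTiter Glo luminescence was read, inhibition was calculated against DMSO controls, and IC50 was fitted in XL-fit.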

Panc 6.03 = assay: Cell proliferation assay, pancreatic cancer cell line Panc 6.03; format: cell-based
Method: as §2, §3

AsPC-1 = assay: Cell viability assay (CellTiter Glo), pancreatic adenocarcinoma AsPC-1; format: cell-based; settings: Homo sapiens, ASPC1; Cell Line AsPC-1; read-out: IC50
In short: (§4)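 MiaPaCa-2 and AsPC-1 cells were seeded overnight at 37 °C and exposed for 96 h to 9-point, 3-fold dilutions from up to 30 μM (final DMSO ≤0.25%). CellTiter Glo luminescence was read, and inhibition was calculated relative to DMSO-only cells. IC50, relative IC50 or % top inhibition was derived.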

NCI-H660 = assay: Cell proliferation assay, prostate cancer cell line NCI-H660; format: cell-based
Method: as §2, §3

143B = assay: Cell viability assay (CellTiter Glo), osteosarcoma 143B; format: cell-based; settings: Homo sapiens, Cell Line 143B, read-out: IC50
In short: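 Cells seeded at 500-5,000/well overnight, then 96 h exposure to 9-point 3-fold dilutions from up to 30 μM (4.6 nM-30 μM), final DMSO ≤0.25%. Viability by CellTiter Glo luminescence; inhibition relative to DMSO-only cells, yielding IC50, relative IC50 or % top inhibition.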

LNCaP = assay: Cell proliferation assay, prostate cancer cell line LNCaP; format: cell-based; settings: Homo sapiens
Method: as §2, §3

Panc 02.13 = assay: Cell proliferation assay, pancreatic cancer cell line Panc 02.13; format: cell-based
Method: as §2, §3

PC-3 = assay: Cell proliferation assay, prostate cancer cell line PC-3; format: cell-based; settings: Homo sapiens
Method: as §2, §3

BM-1604 = assay: Cell proliferation assay, prostate cancer cell line BM-1604; format: cell-based
Method: as §2, §3

BPH1 = assay: Cell proliferation assay, prostate cancer cell line BPH1; format: cell-based; settings: Homo sapiens, BPH-1
Method: as §2, §3

H2228 = assay: Cell viability assay (CellTiter Glo), lung cancer cell line H2228; format: cell-based; settings: Homo sapiens, NCI-H2228; Cell Line H2228; read-out: IC50
In short: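 CellTiter Glo luminescence after 96 h compound exposure; inhibition % = (Max − sample)/Max × 100, with DMSO-only cells as Max. IC50, relative IC50 or % top inhibition derived from 9-point 3-fold titrations (top up to 30 μM, duplicates, ≤0.25% DMSO).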

DU145 = assay: Cell proliferation assay, prostate cancer cell line DU145; format: cell-based; settings: Homo sapiens, DU-145
Method: as §2, §3

BxPC-3 = assay: Cell proliferation assay, pancreatic cancer cell line BxPC-3; format: cell-based; settings: Homo sapiens
Method: as §2, §3

Panc 02.03 = assay: Cell proliferation assay, pancreatic cancer cell line Panc 02.03; format: cell-based; settings: Homo sapiens
Method: as §2, §3

Capan-1 = assay: Cell proliferation assay, pancreatic cancer cell line Capan-1; format: cell-based; settings: Homo sapiens
Method: as §2, §3

PSN-1 = assay: Cell proliferation assay, pancreatic cancer cell line PSN-1; format: cell-based; settings: Homo sapiens, PSN1
Method: as §2, §3

HT-1080 luc2 = assay: Cell viability assay (CellTiter Glo), fibrosarcoma HT-1080 luc2; format: cell-based; settings: Homo sapiens, Cell Line HT1080, read-out: IC50
In short: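 HT-1080 luc2 fibrosarcoma cells seeded overnight, then exposed 96 h at 37° C to 9-point 3-fold dilutions (top up to 30 μM; DMSO ≤0.25% final). CellTiter Glo luminescence; % inhibition relative to DMSO-only wells, fitted to IC50, relative IC50 or % top inhibition.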

Panc 12 = assay: Cell proliferation assay, pancreatic cancer cell line Panc 12; format: cell-based
Method: as §2, §3

U-2 OS = assay: Cell proliferation assay, U-2 OS (Table 25); format: cell-based; settings: Homo sapiens, U2OS; Cell Line U-2 OS
Method: as §2, §3

MiaPaCa-2 = assay: Cell viability assay (CellTiter Glo), pancreatic carcinoma MiaPaCa-2; format: cell-based; settings: Homo sapiens; Cell Line Mia PaCa-2; read-out: IC50
In short: as §4

HPAC = assay: Cell proliferation assay, pancreatic cancer cell line HPAC; format: cell-based; settings: Homo sapiens
Method: as §2, §3

MG-63 = assay: Cell proliferation assay, MG-63 (Table 25); format: cell-based; settings: Homo sapiens
Method: as §2, §3

22Rv1 = assay: Cell proliferation assay, prostate cancer cell line 22Rv1; format: cell-based; settings: Homo sapiens
Method: as §2, §3

SJSA-1 = assay: Cell proliferation (Alamar Blue) assay, SJSA-1 osteosarcoma, with/without ferrostatin; format: cell-based, human; settings: Homo sapiens, SJSA-1, Cell Line SJSA-1; read-out: IC50
In short: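 Cells seeded at 5000/well, 16-24 h, then exposed 24 h at 37° C to compound, 10-0.0005 μM in 3-fold dilutions, 1% DMSO final. Alamar Blue fluorescence (ex 540/em 590 nm) read after 1.5 h; IC50 from variable-slope sigmoidal fit.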

KSK-ES-1 = assay: Cell proliferation assay, KSK-ES-1 (Table 25); format: cell-based; settings: Cell Line KSK-ES-1
Method: as §2, §3

KHOS/NP = assay: Cell proliferation assay, KHOS/NP (Table 25); format: cell-based; settings: Homo sapiens, Cell Line KHOS/NP
Method: as §2, §3

COc1ccc2[nH]c3c(c2c1)C[C@H](C)N(C(=O)CCl)[C@H]3c1ccc(N2CCOCC2)cc1 [Compound 121]
Whole Blood Stability % Remaining at 37° C. Mouse ([1]; 0 min): 100.0%
Whole Blood Stability % Remaining at 37° C. Mouse ([1]; 30 min): 84.3%
Whole Blood Stability % Remaining at 37° C. Mouse ([1]; 60 min): 50.0%
IC50 (KP4): < 0.01 µM
Whole Blood Stability % Remaining at 37° C. Human ([2]; 0 min): 100.0%
Whole Blood Stability % Remaining at 37° C. Human ([2]; 30 min): 90.3%
Whole Blood Stability % Remaining at 37° C. Human ([2]; 60 min): 61.3%
pIC50 (A673): 7.05

CCCC[C@H]1Cc2c([nH]c3ccccc23)[C@H](c2ccc(N3CCOCC3)cc2)N1C(=O)CCl [Compound 240]
pIC50 (MDA PCa 2b): < 5.70
pIC50 (A549): 5.24
pIC50 (Panc 6.03): 7.77
pIC50 (AsPC-1): 8.12
pIC50 (NCI-H660): 7.50
pIC50 (143B): 8.28
pIC50 (LNCaP): 6.24
pIC50 (Panc 02.13): 6.92
pIC50 (PC-3): 8.41
pIC50 (BM-1604): < 5.70
pIC50 (BPH1): 6.69
pIC50 (H2228): 8.77
pIC50 (DU145): 8.21
pIC50 (BxPC-3): 7.15
pIC50 (Panc 02.03): 7.19
pIC50 (Capan-1): 6.77
pIC50 (PSN-1): 7.70
pIC50 (HT-1080 luc2): 8.32
pIC50 (Panc 12; Cell Line Panc 11): 8.07
pIC50 (U-2 OS): 5.37
pIC50 (MiaPaCa-2): 7.45
pIC50 (HPAC): 7.54
pIC50 (MG-63; MG-63, Cell Line MG-63): 7.40
pIC50 (MG-63; MG-63, Cell Line MG-68): < 5.52
pIC50 (22Rv1): 7.64

COc1ccc2[nH]c3c(c2c1)C[C@H](C)N(C(=O)CCl)[C@H]3c1ccc(N2CCOCC2)cc1 [Example 121]
pIC50 (A549): 5.11
pIC50 (Panc 6.03): 6.65
pIC50 (AsPC-1): 7.16
pIC50 (SJSA-1): 6.97
pIC50 (Panc 02.13): 6.01
pIC50 (KSK-ES-1): 6.67
pIC50 (H2228): 7.78
pIC50 (BxPC-3): 5.99
pIC50 (Panc 02.03): 6.16
pIC50 (KHOS/NP): 7.20
pIC50 (Capan-1): < 6.00
pIC50 (PSN-1): 6.76
pIC50 (HT-1080 luc2): 7.20
pIC50 (Panc 12; Cell Line Panc 10): 7.23
pIC50 (U-2 OS): 5.31
pIC50 (MiaPaCa-2): 6.69
pIC50 (HPAC): 6.69
pIC50 (MG-63; MG-63, Cell Line MG-63): 6.27
